From ChEMBL document CHEMBL1201862, “PubChem BioAssay data set” (2004)
Values belong to the molecule of their own block, whether it stands above or below them. Calls of active or inactive are those of the source.

Tests used:
[1] = human group III sPLA2 inhibitors, dose response, biochemical, QFRET, IC50 (AID 743457);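 note: green fluorescence rise as the enzyme cleaves BODIPY PC-A2 in liposomes; potency for inhibition of the enzyme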
[2] = biological target: ADP-ribosylation factor GTPase-activating protein 1 (Rattus norvegicus, UniProt Q62848); test: Fluorescence polarization-based biochemical high throughput dose response screening assay to identify inhibitors of ADP-ribosylation factor GTPase activating protein 1 (ARFGAP1).; format: functional
Sequence of ADP-ribosylation factor GTPase-activating protein 1 (Q62848 whole entry): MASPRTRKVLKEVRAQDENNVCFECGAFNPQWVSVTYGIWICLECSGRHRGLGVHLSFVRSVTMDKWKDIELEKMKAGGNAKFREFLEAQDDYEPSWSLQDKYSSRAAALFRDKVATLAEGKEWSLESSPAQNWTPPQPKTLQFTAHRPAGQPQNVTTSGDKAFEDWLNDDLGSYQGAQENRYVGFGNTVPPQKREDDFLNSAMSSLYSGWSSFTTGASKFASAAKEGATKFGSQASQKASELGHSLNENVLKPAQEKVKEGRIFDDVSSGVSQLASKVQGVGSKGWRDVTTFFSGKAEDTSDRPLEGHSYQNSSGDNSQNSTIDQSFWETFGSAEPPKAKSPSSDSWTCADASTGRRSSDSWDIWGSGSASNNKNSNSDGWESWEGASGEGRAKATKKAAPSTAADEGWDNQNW

A549 = test: A549 cell toxicity, dose response, cytotoxicity control, plate reader, cherry-pick samples (AID 687028); format: functional, cell-based; settings: Homo sapiens
BHK-21 = test: BHK-21 cell toxicity, dose response, cytotoxicity control, plate reader, cherry-pick samples (AID 687030); format: functional, cell-based; settings: Mesocricetus auratus
[3] = Counterscreen for activators of the function of SWI/SNF related, matrix associated, actin dependent regulator of chromatin, subfamily a, member 2 (SMARCA2, BRM): Luminescence-based cell-based high throughput dose response assay to identify non-selective compounds using the VP16 reporter assay.; format: functional
[4] = biological target: SWI/SNF-related matrix-associated actin-dependent regulator of chromatin subfamily A member 2 (Homo sapiens, UniProt P51531); test: Luminescence-based cell-based high throughput dose response assay to identify activators of the function of SWI/SNF related, matrix associated, actin dependent regulator of chromatin, subfamily a, member 2 (SMARCA2, BRM).; format: functional
Sequence of SWI/SNF-related matrix-associated actin-dependent regulator of chromatin subfamily A member 2 (P51531 whole entry): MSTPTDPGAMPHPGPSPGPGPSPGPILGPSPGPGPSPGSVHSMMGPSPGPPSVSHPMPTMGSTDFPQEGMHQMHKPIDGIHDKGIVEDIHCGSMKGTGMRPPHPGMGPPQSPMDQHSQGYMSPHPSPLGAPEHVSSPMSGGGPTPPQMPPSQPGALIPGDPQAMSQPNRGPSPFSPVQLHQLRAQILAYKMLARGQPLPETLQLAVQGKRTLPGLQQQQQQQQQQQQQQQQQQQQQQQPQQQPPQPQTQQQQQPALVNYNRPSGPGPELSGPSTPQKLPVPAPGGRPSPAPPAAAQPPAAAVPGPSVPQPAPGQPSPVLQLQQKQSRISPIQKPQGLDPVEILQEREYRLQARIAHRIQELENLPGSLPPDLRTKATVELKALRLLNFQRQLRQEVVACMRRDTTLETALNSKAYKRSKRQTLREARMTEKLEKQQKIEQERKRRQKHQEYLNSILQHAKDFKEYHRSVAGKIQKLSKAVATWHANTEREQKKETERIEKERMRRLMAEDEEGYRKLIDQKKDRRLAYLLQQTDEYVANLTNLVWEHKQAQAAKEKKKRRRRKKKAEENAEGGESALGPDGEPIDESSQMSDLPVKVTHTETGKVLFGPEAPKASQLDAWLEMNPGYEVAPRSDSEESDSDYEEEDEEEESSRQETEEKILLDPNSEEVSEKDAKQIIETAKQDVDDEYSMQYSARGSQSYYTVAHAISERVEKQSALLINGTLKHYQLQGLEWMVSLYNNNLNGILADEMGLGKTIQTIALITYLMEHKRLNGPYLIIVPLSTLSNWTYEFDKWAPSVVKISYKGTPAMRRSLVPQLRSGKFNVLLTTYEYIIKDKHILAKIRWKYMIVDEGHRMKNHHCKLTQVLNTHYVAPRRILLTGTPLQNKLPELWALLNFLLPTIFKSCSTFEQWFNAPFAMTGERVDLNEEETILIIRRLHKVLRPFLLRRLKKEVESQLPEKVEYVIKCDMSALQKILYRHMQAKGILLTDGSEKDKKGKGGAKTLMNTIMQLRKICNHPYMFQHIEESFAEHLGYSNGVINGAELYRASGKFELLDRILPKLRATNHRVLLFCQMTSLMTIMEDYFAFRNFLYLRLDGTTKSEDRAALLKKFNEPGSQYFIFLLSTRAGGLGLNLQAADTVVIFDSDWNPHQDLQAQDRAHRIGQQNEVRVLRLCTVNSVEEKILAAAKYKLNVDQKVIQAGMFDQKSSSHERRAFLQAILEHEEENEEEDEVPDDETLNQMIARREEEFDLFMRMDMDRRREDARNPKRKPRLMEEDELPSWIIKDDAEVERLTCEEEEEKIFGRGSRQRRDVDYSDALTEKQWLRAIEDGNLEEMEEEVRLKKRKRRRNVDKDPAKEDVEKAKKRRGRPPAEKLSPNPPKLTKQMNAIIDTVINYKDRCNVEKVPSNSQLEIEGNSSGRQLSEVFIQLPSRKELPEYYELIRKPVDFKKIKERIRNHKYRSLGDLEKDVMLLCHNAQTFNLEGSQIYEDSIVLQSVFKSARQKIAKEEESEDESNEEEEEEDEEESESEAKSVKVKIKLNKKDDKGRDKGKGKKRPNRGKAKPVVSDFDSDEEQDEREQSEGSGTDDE

[5] = biological target: T1, Matrix metalloproteinase-14 (Homo sapiens, UniProt P50281); test: Dose Response confirmation of uHTS hits for a small molecule inhibitors of MT1-MMP activation in a fluorescence assay set 1.; format: functional
[6] = biological target: T1, Matrix metalloproteinase-14; test: SAR confirmation of uHTS hits for a small molecule inhibitors of MT1-MMP activation in a fluorescence assay.; format: functional
[7] = miR-122 activators in hepatoma reporter cells, dose response, cell-based, Huh7 psiCHECK-miR122, Renilla luciferase, cherry-picked (AID 651956); format: functional;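 note: huh7 hepatoma cells stably carrying a psiCHECK-2 miR-122 sensor plasmid; renilla luciferase signal reporting endogenous miR-122 activity after 48 h compound exposure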
cells [8] = format: functional, cell-based
cells [9] = format: functional, cell-based; remark: listed apart in the source
Paired box protein Pax-8 = Paired box protein Pax-8 (Homo sapiens, UniProt Q06710); test: inhibitors of PAX8-driven TPO luciferase reporter, dose response, RMG-I cells, cherry-pick (AID 687027); format: functional, cell-based;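 note: luciferase reporter driven by Pax8 target thyroperoxidase promoter measured by SteadyGlo luminescence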
Sequence of Paired box protein Pax-8 (Q06710 whole entry): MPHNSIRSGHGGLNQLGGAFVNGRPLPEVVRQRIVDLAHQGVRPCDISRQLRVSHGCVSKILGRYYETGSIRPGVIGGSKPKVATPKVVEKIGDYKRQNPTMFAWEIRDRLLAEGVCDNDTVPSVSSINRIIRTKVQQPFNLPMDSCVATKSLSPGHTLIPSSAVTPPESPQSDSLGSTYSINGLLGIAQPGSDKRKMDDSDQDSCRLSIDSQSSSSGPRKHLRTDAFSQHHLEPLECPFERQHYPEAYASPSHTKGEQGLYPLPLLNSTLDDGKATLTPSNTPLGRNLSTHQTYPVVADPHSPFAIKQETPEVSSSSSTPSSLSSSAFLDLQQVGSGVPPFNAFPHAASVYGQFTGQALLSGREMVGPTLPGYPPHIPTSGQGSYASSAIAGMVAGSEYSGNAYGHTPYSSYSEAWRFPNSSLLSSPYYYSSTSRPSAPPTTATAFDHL

[10] = NIH:OVCAR-3 ovarian cancer cell cytotoxicity, dose response, PAX8 inhibitor project, plate reader, dry powder samples (AID 743044); format: functional, cell-based
[11] = IGROV1 ovarian cancer cell cytotoxicity, dose response, PAX8 inhibitor project, plate reader, dry powder samples (AID 743043); format: functional, cell-based; settings: IGROV-1
[12] = cytotoxicity in OVCAR8 ovarian cancer cells, dose response, PAX8 project, cell-based, plate reader, dry powder samples (AID 743197); format: functional; settings: OVCAR-8
[13] = A2780 ovarian cancer cell cytotoxicity, dose response, cytotoxicity control, plate reader, dry powder samples (AID 743046); format: functional, cell-based
[14] = HEK293 cell viability, dose response, counter-screen for EBV LMP1 inhibitor project, dry powder, set 2 (AID 624374); format: functional
Protein Wnt-3a = Protein Wnt-3a (Mus musculus, UniProt P27467); test: SAR analysis of small molecule antagonists of Gli-SUFU in a Wnt3a luminescent reporter assay.; format: functional
Sequence of Protein Wnt-3a (P27467 whole entry): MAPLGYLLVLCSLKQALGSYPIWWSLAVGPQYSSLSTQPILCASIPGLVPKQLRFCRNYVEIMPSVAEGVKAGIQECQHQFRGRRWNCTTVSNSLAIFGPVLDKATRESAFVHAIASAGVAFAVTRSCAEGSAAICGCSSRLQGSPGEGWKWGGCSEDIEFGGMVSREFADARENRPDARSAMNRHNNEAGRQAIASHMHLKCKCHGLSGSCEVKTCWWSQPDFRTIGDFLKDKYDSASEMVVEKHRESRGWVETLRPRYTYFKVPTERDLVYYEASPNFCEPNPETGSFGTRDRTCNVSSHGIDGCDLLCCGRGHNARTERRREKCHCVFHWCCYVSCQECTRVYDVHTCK

[15] = LGR2 antagonists, dose response, cell-based, HEK293, CRE-luciferase reporter, cherry pick (AID 743342); format: functional
[16] = A549 cell cytotoxicity, dose response, cytotoxicity control, plate reader, cherry-pick, antagonist series (AID 743412); format: functional, cell-based
[17] = ADAM10 inhibitors, peptide cleavage, dose response, biochemical, QFRET (AID 743254);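 note: ADAM10 enzyme with the DM2 quenched FRET peptide as substrate; EDANS fluorescence gain as the protease cuts the substrate; inhibitor potency against ADAM10 proteolytic activity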
[18] = biological target: Disintegrin and metalloproteinase domain-containing protein 17 (Homo sapiens, UniProt P78536); test: ADAM17 protease inhibitors, dose response, counter-screen for ADAM10 exosite inhibitor project, biochemical, quenched FRET substrate (AID 743253)
Sequence of Disintegrin and metalloproteinase domain-containing protein 17 (P78536 whole entry, the tested form may be a part): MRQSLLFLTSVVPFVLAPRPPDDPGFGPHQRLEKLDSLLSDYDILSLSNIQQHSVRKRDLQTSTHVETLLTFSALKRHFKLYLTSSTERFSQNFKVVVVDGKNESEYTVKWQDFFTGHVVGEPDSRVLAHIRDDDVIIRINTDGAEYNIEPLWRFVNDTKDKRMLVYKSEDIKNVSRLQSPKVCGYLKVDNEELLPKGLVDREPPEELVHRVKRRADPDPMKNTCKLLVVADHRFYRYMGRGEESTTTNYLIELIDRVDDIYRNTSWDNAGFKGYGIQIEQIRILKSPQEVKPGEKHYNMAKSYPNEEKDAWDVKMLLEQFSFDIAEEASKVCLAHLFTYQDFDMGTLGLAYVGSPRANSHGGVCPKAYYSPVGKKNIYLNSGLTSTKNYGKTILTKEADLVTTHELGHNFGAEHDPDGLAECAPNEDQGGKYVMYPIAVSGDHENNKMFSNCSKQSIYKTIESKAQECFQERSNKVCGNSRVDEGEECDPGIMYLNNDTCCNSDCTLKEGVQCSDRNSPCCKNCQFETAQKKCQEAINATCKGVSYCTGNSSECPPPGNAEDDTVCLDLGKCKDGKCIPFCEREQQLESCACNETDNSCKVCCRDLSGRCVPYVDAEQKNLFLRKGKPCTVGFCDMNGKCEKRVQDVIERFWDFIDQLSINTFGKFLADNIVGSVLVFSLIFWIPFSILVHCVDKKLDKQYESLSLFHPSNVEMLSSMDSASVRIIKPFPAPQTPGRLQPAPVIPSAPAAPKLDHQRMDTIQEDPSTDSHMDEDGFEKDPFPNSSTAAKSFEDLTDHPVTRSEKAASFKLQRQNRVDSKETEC

[19] = biological target: T2, Low molecular weight phosphotyrosine protein phosphatase (Homo sapiens, UniProt P24666); format: functional; settings: read-out: IC50_Mean
T2 sequence (P24666 whole entry): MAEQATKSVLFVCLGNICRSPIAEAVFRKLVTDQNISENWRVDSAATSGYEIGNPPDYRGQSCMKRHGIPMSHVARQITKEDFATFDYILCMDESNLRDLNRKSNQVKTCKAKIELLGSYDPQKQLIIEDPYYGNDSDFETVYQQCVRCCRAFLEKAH

[20] = biological target: T3, Tyrosine-protein phosphatase non-receptor type 22 (Homo sapiens, UniProt Q9Y2R2); test: LYP phosphatase inhibition for selectivity, dose response, selectivity assay for LMPTP inhibitor project, biochemical, fluorescence, LYP catalytic domain (AID 652006); format: functional; settings: read-out: IC50_Mean
T3 sequence (Q9Y2R2 whole entry): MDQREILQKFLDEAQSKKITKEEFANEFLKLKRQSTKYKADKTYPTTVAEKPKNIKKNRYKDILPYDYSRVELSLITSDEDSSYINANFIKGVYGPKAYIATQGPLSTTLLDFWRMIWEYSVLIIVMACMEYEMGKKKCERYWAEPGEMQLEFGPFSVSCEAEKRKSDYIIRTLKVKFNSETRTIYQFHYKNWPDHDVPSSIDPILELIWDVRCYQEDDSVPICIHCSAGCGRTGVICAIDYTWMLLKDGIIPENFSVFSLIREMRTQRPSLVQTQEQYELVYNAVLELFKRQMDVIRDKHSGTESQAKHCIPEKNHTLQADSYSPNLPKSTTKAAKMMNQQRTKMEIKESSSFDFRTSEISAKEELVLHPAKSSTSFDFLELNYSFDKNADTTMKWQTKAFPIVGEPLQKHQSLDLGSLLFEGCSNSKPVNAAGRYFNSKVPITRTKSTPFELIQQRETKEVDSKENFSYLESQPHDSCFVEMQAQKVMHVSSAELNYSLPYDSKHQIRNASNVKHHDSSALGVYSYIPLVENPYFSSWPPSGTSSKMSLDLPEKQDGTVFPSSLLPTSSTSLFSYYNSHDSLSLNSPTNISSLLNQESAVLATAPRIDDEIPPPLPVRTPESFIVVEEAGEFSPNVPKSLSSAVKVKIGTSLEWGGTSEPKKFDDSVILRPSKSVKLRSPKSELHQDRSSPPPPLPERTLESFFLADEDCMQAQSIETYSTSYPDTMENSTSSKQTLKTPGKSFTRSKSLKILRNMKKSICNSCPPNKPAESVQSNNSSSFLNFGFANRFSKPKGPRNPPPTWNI

[21] = biological target: T4, Carboxy-terminal domain RNA polymerase II polypeptide A small phosphatase 1 (Homo sapiens, UniProt Q9GZU7); test: inhibitors of CTDSP1, concentration-response testing, biochemical assay, absorbance-based, actives from ultra-high-throughput screening (AID 540297); format: functional
T4 sequence (Q9GZU7 whole entry): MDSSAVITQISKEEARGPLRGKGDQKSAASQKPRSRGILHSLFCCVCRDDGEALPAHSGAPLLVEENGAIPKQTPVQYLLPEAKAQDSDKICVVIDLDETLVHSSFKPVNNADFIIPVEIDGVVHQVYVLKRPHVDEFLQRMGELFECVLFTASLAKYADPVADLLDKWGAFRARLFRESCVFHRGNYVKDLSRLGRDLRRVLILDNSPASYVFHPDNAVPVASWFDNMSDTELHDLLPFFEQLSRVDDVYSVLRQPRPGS

[22] = biological target: T2, Low molecular weight phosphotyrosine protein phosphatase; format: functional; settings: read-out: IC50_Mean; remark: listed apart in the source

IC50 [1]: > 122 µM (inactive)
SMILES: Cc1cc(C(=O)NN=C(S)Nc2cccc(C(F)(F)F)c2)nn1C

IC50 [2]: 133 µM (inactive)
SMILES: Cc1ccc2nc3c(O)n(CC(=O)N4CC(C)CC(C)C4)ncc-3c2c1 (stereo unspecified)

SMILES: CN(c1cccc(NC(=O)c2ccc(C(C)(C)C)cc2)c1)S(C)(=O)=O
AC50 (A549): 23.1 µM (active) | AC50 (BHK-21): 22.6 µM (active)

SMILES: O=C1/C(=C/c2ccco2)Cc2ccccc21
EC50 [3]: > 91.1 µM (inactive) | EC50 [4]: > 91.1 µM (inactive)

IC50 [5]: 11.9 µM (active) | IC50 [6]: > 80 µM (inactive)
SMILES: Cc1c(C(=O)OCC(=O)NCC2CCCO2)oc2ccccc12 (stereo unspecified)

SMILES: C[C@@H]1CN([C@H](C)CO)C(=O)c2cc(-c3cccc(C#N)c3)cnc2O[C@H]1CN(C)C(=O)C1CCC1
AC50 [7]: 53.7 µM (active)

SMILES: CC(CNC(=O)[C@@H](Cc1ccccc1)NC(=O)[C@H]1O[C@@H](n2cnc3c(=O)[nH]c(N)nc32)[C@H](O)[C@@H]1O)c1ccccc1 (stereo partly specified)
IC50 (cells [8]): > 29.9 µM (inactive) | EC50 (cells [9]): > 29.9 µM (inactive)

SMILES: C[C@@H]1CN([C@H](C)CO)C(=O)c2cc(NS(=O)(=O)c3ccc(Cl)cc3)ccc2O[C@@H](C)CCCCO[C@H]1CN(C)S(=O)(=O)c1ccc(Cl)cc1
AC50 (Paired box protein Pax-8): 4.76 µM (active) | AC50 [10]: 15.9 µM (active) | AC50 [11]: 32.9 µM (active) | AC50 [12]: 25.1 µM (active) | AC50 [13]: 54.6 µM (active)

SMILES: C[C@@H]1CN([C@@H](C)CO)C(=O)c2c(c3ccccc3n2C)-c2ccccc2CO[C@@H]1CN(C)C(=O)Nc1ccc(F)cc1
AbsAC35 [14]: 304.17 µM

IC50 (Protein Wnt-3a): > 21.8 µM (inactive)
SMILES: O=C(Nc1cc(NCC2CCCO2)ncn1)c1ccccc1 (stereo unspecified)

SMILES: COc1ccc(NC(=O)N(C)C[C@@H]2OCCCC[C@H](C)Oc3ccc(NC(=O)C4CCCCC4)cc3C(=O)N([C@H](C)CO)C[C@@H]2C)cc1
AC50 [15]: 2.67 µM (active) | AC50 [16]: 27.8 µM (active)

IC50 [17]: > 69.5 µM (inactive) | IC50 [18]: > 69.5 µM (inactive)
SMILES: CNC(=S)N/N=C/c1cn(CCOc2ccc(OC)cc2)c2ccccc12

IC50 [19]: 12.2 µM (active) | IC50 [20]: 41.4 µM (inactive) | IC50 [21]: 4.51 µM (active) | IC50 [22]: 39.7 µM (inactive)
SMILES: O=C(N/N=C/c1cccc(Br)c1)c1ccc(Br)cc1
